In assay [1] the target is T1, human TYK2 kinase domain (JH1) (Homo sapiens, UniProt P29597).
T1 construct: recombinantly generated catalytic kinase (also known as JH1) domain of human JAK1, JAK2, JAK3 and TYK2
T1 sequence (P29597 897-1176 limits assumed): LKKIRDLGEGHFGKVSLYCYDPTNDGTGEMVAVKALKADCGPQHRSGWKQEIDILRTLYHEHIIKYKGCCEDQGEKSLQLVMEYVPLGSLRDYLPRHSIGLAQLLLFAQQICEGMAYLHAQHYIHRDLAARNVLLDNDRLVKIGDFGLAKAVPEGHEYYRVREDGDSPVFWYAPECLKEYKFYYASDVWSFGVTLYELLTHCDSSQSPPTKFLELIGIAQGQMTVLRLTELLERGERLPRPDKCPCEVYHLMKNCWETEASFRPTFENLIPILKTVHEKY
In words: JH1 biochemical assay for TYK2 (ADP-Glo kinase assay, recombinant JH1 catalytic domain, JAK3-974 peptide, 10 μM ATP). To be noted: TYK2 JH1, ADP-Glo. The method in brief: (§1)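 Kinase 4 nM JAK1 / 0.2 nM JAK2 / 0.3 nM JAK3 / 2 nM TYK2; 50 μM peptide; 100 min. Unused ATP depleted, ADP→ATP, luciferase luminescence. 11-pt 3-fold series from 10 or 1 μM; normalized, 4PL fit → IC50.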
For orientation: In ADP-Glo the light output rises with the ADP produced.

Assay [2] deals with T2, human JAK1 kinase domain (JH1) (Homo sapiens, UniProt P23458).
T2 construct: recombinantly generated catalytic kinase (also known as JH1) domain of human JAK1, JAK2, JAK3 and TYK2
T2 sequence (P23458 875-1153 limits assumed): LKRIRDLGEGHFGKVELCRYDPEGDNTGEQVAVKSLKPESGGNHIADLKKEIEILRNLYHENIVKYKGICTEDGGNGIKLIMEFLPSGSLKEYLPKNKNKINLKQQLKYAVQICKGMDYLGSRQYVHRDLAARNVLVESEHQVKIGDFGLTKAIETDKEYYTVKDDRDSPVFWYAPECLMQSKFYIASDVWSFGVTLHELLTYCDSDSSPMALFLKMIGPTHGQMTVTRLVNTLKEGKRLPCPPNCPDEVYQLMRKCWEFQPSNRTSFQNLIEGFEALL
In words: JH1 biochemical assay for JAK1 (ADP-Glo kinase assay, recombinant JH1 catalytic domain, JAK3-342 peptide, 35 μM ATP). To be noted: JAK1 JH1, ADP-Glo. The method in brief:
as §1

The target in assay [3] is Tyk2 kinase activity on STAT4 in NK92 cells (Homo sapiens, UniProt P29597). In words: pSTAT4 cell assay (MSD; NK92 cells, 30 ng/mL IL2 stimulation). The class given is cell-based. To be noted: 30 ng/mL IL2, 15 minutes. The method in brief: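 Compound treatment of starved NK92 cells ran 1 hr before a 15-minute, 30 ng/mL IL2 pulse; lysates went to an MSD anti-STAT4 antibody assay, with curves fitted by 4-parameter logistic model.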
Tyk2 kinase activity on STAT4 in NK92 cells, sequence (P29597 whole entry): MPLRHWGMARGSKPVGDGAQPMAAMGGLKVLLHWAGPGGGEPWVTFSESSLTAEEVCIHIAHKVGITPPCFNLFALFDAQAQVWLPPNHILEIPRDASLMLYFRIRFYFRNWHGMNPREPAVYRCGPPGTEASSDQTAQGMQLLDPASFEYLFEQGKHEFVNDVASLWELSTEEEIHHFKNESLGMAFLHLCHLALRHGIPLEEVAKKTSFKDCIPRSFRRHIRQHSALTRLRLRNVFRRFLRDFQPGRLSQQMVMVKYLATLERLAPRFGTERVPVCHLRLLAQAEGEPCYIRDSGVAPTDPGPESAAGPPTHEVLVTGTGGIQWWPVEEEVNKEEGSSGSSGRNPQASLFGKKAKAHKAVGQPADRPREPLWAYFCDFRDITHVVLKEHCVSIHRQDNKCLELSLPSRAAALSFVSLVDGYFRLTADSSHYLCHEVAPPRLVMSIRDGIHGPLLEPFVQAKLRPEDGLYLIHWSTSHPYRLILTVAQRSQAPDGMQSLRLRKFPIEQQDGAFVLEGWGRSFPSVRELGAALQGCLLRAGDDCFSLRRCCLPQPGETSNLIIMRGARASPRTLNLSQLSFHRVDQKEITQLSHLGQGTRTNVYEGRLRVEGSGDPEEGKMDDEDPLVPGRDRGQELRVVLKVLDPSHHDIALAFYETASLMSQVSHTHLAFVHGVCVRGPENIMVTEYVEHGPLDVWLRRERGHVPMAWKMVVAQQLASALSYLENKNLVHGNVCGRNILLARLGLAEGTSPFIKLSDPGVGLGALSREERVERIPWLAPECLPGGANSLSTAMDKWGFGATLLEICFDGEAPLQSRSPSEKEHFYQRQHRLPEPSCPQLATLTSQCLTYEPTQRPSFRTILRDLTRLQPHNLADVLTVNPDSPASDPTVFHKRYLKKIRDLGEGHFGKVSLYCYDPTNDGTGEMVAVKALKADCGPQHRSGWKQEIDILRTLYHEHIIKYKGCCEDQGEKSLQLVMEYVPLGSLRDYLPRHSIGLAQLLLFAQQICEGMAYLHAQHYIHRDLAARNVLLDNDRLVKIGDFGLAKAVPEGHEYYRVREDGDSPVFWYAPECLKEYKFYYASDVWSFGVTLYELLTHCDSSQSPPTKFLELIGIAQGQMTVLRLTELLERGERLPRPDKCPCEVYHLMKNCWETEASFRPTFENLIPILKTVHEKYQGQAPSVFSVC

In assay [4] the target is JAK1 kinase activity on STAT3 in TF1 cells (Homo sapiens, UniProt P23458). Put plainly: pSTAT3 cell assay (MSD; TF1 cells, 30 ng/mL IL-6 stimulation). To be noted: 30 ng/mL IL-6, 15 minutes. The class given is cell-based. The method in brief:
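IC50 values reflect 4-parameter logistic fits of normalized pSTAT3 signal, measured by MSD in lysed TF1 cells. Cells were serum-starved and treated with compound for 1 h (top concentration 10 μM) before a 15 min IL-6 challenge.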

In assay [5] the target is JAK2 kinase activity on STAT5 in TF1 cells (Homo sapiens, UniProt O60674). Put plainly: pSTAT5 cell assay (MSD; TF1 cells, 30 ng/mL IL-3 stimulation). To be noted: 30 ng/mL IL-3, 15 minutes. The class given is cell-based. The method in brief: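 IC50 from a 4-parameter logistic fit of normalized pSTAT5 signal, measured by MSD in lysates of TF1 cells. Cells were serum-starved, exposed to compound for 1 h (top concentration 10 μM, four-fold, 10 points), then given IL-3 at 30 ng/mL for 15 min.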
JAK2 kinase activity on STAT5 in TF1 cells, sequence (O60674 whole entry): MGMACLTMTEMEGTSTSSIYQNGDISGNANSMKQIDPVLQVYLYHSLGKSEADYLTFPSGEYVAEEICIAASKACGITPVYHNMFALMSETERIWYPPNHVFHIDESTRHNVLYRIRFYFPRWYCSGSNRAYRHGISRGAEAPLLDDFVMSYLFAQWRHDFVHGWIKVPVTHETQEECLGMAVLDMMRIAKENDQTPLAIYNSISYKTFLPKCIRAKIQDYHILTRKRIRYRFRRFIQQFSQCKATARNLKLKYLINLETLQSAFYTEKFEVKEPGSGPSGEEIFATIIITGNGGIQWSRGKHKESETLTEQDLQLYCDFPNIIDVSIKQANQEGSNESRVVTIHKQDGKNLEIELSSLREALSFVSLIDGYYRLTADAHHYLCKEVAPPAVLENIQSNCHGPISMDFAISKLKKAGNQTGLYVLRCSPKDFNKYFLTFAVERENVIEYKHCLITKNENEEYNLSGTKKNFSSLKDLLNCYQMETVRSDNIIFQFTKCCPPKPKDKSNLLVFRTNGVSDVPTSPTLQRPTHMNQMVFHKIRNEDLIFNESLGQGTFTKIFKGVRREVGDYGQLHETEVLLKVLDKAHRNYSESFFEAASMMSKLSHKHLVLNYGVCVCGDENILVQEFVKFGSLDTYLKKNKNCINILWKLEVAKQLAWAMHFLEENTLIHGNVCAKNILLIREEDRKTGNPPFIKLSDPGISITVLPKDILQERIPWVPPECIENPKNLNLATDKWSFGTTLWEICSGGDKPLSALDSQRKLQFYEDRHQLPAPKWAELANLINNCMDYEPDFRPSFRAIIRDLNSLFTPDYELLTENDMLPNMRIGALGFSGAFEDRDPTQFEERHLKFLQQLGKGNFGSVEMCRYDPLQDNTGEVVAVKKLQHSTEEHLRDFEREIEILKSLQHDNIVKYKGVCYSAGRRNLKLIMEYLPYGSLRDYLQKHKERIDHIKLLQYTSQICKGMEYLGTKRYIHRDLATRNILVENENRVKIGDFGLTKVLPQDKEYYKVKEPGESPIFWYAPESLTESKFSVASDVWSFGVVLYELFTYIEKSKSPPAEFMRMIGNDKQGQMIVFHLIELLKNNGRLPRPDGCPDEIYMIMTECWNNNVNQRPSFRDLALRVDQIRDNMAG

The target of assay [6] is T3, human JAK2 kinase domain (JH1) (Homo sapiens, UniProt O60674).
T3 construct: recombinantly generated catalytic kinase (also known as JH1) domain of human JAK1, JAK2, JAK3 and TYK2
T3 sequence (O60674 849-1124 limits assumed): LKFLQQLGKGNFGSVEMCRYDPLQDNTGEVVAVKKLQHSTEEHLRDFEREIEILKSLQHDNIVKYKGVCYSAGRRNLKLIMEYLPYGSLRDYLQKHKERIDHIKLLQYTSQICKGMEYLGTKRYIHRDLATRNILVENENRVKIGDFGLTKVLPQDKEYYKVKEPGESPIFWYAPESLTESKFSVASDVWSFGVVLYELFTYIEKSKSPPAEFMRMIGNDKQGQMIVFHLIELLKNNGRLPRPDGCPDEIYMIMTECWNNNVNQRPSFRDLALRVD
In words: JH1 biochemical assay for JAK2 (ADP-Glo kinase assay, recombinant JH1 catalytic domain, JAK3-974 peptide, 15 μM ATP). As to conditions: JAK2 JH1, ADP-Glo. The method in brief: as §1

In assay [7] the target is T4, human JAK3 kinase domain (JH1) (Homo sapiens, UniProt P52333).
T4 construct: recombinantly generated catalytic kinase (also known as JH1) domain of human JAK1, JAK2, JAK3 and TYK2
T4 sequence (P52333 822-1111 limits assumed): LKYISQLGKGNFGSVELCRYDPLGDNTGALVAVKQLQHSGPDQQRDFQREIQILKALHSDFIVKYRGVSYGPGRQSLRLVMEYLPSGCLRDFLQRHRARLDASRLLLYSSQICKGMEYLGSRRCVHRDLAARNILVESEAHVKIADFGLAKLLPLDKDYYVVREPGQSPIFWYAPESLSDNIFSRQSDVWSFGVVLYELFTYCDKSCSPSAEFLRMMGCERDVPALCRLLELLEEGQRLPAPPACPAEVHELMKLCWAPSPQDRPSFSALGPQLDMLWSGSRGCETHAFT
In words: JH1 biochemical assay for JAK3 (ADP-Glo kinase assay, recombinant JH1 catalytic domain, JAK3-974 peptide, 4 μM ATP). As to conditions: JAK3 JH1, ADP-Glo. Put shortly:
as §1

Molecules are shown by their SMILES. pIC50: −log10 of the molar value. Structures can show the parent of a compound that is named as a salt.

JAK1 kinase activity on STAT3 in TF1 cells, sequence (P23458 whole entry): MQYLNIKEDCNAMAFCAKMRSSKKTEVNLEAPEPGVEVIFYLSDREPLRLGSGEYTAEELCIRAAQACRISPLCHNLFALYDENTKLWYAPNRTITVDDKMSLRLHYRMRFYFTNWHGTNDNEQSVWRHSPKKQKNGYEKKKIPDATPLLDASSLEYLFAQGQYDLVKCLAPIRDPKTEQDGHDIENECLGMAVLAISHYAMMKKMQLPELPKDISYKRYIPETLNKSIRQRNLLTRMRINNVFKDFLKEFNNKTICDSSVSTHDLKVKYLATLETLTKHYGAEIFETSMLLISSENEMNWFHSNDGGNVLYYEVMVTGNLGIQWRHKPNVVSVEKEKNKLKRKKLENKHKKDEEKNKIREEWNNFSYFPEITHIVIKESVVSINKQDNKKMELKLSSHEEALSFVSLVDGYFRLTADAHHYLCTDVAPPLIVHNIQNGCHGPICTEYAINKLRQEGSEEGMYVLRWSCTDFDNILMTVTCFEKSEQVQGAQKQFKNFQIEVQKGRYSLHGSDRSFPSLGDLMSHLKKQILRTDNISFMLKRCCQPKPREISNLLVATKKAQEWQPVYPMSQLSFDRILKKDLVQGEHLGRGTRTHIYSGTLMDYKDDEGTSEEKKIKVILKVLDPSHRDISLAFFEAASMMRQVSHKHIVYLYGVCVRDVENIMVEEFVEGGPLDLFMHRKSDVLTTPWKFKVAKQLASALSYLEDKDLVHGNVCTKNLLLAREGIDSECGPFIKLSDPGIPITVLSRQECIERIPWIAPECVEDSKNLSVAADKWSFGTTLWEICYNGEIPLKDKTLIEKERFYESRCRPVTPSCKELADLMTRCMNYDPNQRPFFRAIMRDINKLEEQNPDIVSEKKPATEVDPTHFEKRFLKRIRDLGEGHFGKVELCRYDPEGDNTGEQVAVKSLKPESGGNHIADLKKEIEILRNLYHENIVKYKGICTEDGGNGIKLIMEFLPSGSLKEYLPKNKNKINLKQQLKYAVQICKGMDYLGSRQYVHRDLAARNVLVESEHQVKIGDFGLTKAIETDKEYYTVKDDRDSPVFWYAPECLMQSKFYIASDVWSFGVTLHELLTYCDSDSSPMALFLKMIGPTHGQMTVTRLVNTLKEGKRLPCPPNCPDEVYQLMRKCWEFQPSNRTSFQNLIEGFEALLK

As for `C[C@@H]1CN(c2nc(-c3cnn(CC#N)c3)cn3ncc(F)c23)C(=O)[C@]1(C#N)C1CC1` [Example 220, (3R,4S)-1-(6-(1-(cyanomethyl)-1H-pyrazol-4-yl)-3-fluoropyrazolo[1,5-a]pyrazin-4-yl)-3-cyclopropyl-4-methyl-2-oxopyrrolidine-3-carbonitrile], the pIC50 in assay [1] is over 8.30; in assay [2], 6.00 to 7.00; in assay [3], under 7.00; in assay [4], 5.30 to 6.00; in assay [5] it was 5.30 to 6.00; in assay [6], 6.00 to 7.00. Also, the pIC50 in assay [7] is over 7.00.

Take `Cc1c(-c2cn3ncc(F)c3c(N3C[C@@H](C)[C@@](C#N)(C4CC4)C3=O)n2)cnn1C` [Example 221, (3R,4S)-3-cyclopropyl-1-(6-(1,5-dimethyl-1H-pyrazol-4-yl)-3-fluoropyrazolo[1,5-a]pyrazin-4-yl)-4-methyl-2-oxopyrrolidine-3-carbonitrile]: the pIC50 in assay [1] was 7.70 to 8.30; in assay [2] it was 6.00 to 7.00; in assay [3] it was under 7.00; in assay [4], 5.30 to 6.00; in assay [5] it was under 5.00; in assay [6], 5.30 to 6.00. Further, the pIC50 in assay [7] was 6.00 to 7.00.

`C[C@@H]1CN(c2nc(-c3ccc4c(cnn4C)c3)cn3nccc23)C(=O)[C@]1(C#N)C1CC1` [Example 225, (3R,4S)-3-cyclopropyl-4-methyl-1-(6-(1-methyl-1H-indazol-5-yl)pyrazolo[1,5-a]pyrazin-4-yl)-2-oxopyrrolidine-3-carbonitrile trifluoroacetate]: the pIC50 in assay [1] is over 8.30; in assay [2], over 7.00; in assay [3] it was under 7.00; in assay [4], 5.30 to 6.00; in assay [5], 5.30 to 6.00; in assay [6], 6.00 to 7.00. Moreover, in assay [7], the pIC50 is over 7.00.

Consider `CNC(=O)c1ccc(-c2cn3nccc3c(N3C[C@@H](C)[C@@](C#N)(C4CC4)C3=O)n2)cn1` [Example 227, 5-(4-((3R,4S)-3-cyano-3-cyclopropyl-4-methyl-2-oxopyrrolidin-1-yl)pyrazolo[1,5-a]pyrazin-6-yl)-N-methylpicolinamide trifluoroacetate], for which the pIC50 is over 8.30 in assay [1]; over 7.00 in assay [2]; under 7.00 in assay [3]; 6.00 to 7.00 in assay [4]; 5.30 to 6.00 in assay [5]; 6.00 to 7.00 in assay [6]. The pIC50 in assay [7] is over 7.00.

Regarding `CC(=O)Nc1cc(-c2cn3nccc3c(N3C[C@@H](C)[C@@](C#N)(C4CC4)C3=O)n2)ccn1` [Example 228, N-(4-(4-((3R,4S)-3-cyano-3-cyclopropyl-4-methyl-2-oxopyrrolidin-1-yl)pyrazolo[1,5-a]pyrazin-6-yl)pyridin-2-yl)acetamide], the pIC50 in assay [1] is over 8.30; in assay [2], over 7.00; in assay [3] it was 7.00 to 7.30; in assay [4] it was 6.00 to 7.00; in assay [5], 5.30 to 6.00; in assay [6], 6.00 to 7.00. In assay [7], the pIC50 is over 7.00.

Turning to `C[C@@H]1CN(c2nc(-c3cnc4[nH]ccc4c3)cn3nccc23)C(=O)[C@]1(C#N)C1CC1` [Example 230, (3R,4S)-1-(6-(1H-pyrrolo[2,3-b]pyridin-5-yl)pyrazolo[1,5-a]pyrazin-4-yl)-3-cyclopropyl-4-methyl-2-oxopyrrolidine-3-carbonitrile], the pIC50 in assay [1] is over 8.30; in assay [2], over 7.00; in assay [3], 7.70 to 8.30; in assay [4], 6.00 to 7.00; in assay [5] it was 5.30 to 6.00; in assay [6], 6.00 to 7.00. Also, the pIC50 in assay [7] is over 7.00.

`C[C@@H]1CN(c2nc(-c3cc[nH]n3)cn3nccc23)C(=O)[C@]1(C#N)C1CC1` [Example 232, (3R,4S)-1-(6-(1H-pyrazol-3-yl)pyrazolo[1,5-a]pyrazin-4-yl)-3-cyclopropyl-4-methyl-2-oxopyrrolidine-3-carbonitrile trifluoroacetate]: the pIC50 in assay [1] was 7.70 to 8.30; in assay [2], over 7.00; in assay [3] it was under 7.00; in assay [4], 5.30 to 6.00; in assay [5], under 5.00; in assay [6], 6.00 to 7.00. For the same compound, in assay [7], the pIC50 was 6.00 to 7.00.

As for `Cc1ccc(-c2cn3nccc3c(N3C[C@@H](C)[C@@](C#N)(C4CC4)C3=O)n2)cn1` [Example 233, (3R,4S)-3-cyclopropyl-4-methyl-1-(6-(6-methylpyridin-3-yl)pyrazolo[1,5-a]pyrazin-4-yl)-2-oxopyrrolidine-3-carbonitrile trifluoroacetate], the pIC50 in assay [1] is over 8.30; in assay [2], over 7.00; in assay [3], under 7.00; in assay [4], 5.30 to 6.00; in assay [5], 5.30 to 6.00; in assay [6] it was 6.00 to 7.00. Besides, the pIC50 in assay [7] was over 7.00.

For the compound `C[C@@H]1CN(c2nc(-c3ccnc(C(F)(F)F)c3)cn3nccc23)C(=O)[C@]1(C#N)C1CC1` [Example 234, (3R,4S)-3-cyclopropyl-4-methyl-2-oxo-1-(6-(2-(trifluoromethyl)pyridin-4-yl)pyrazolo[1,5-a]pyrazin-4-yl)pyrrolidine-3-carbonitrile trifluoroacetate], the pIC50 in assay [1] is 7.70 to 8.30; in assay [2], 6.00 to 7.00; in assay [3], under 7.00; in assay [4], under 5.00; in assay [5], under 5.00; in assay [6] it was 6.00 to 7.00. Moreover, the negative-log IC50 (pIC50) in assay [7] was 6.00 to 7.00.

For the compound `C[C@@H]1CN(c2nc(-c3cnc4c(c3)OCC(=O)N4C)cn3nccc23)C(=O)[C@]1(C#N)C1CC1` [Example 235, (3R,4S)-3-cyclopropyl-4-methyl-1-(6-(4-methyl-3-oxo-3,4-dihydro-2H-pyrido[3,2-b][1,4]oxazin-7-yl)pyrazolo[1,5-a]pyrazin-4-yl)-2-oxopyrrolidine-3-carbonitrile trifluoroacetate], the pIC50 is over 8.30 in assay [1]; over 7.00 in assay [2]; under 7.00 in assay [3]; under 5.00 in assay [4]; under 5.00 in assay [5]; 6.00 to 7.00 in assay [6]. The pIC50 in assay [7] was 6.00 to 7.00.

In the case of `Cc1cncc(-c2cn3nccc3c(N3C[C@@H](C)[C@@](C#N)(C4CC4)C3=O)n2)c1` [Example 236, (3R,4S)-3-cyclopropyl-4-methyl-1-(6-(5-methylpyridin-3-yl)pyrazolo[1,5-a]pyrazin-4-yl)-2-oxopyrrolidine-3-carbonitrile], the pIC50 in assay [1] was 7.70 to 8.30; in assay [2] it was 6.00 to 7.00; in assay [3], under 7.00; in assay [4], 5.30 to 6.00; in assay [5] it was 5.00 to 5.30; in assay [6] it was 6.00 to 7.00. Besides, the pIC50 in assay [7] is 6.00 to 7.00.

In the case of `C[C@@H]1CN(c2nc(-c3ccnc(F)c3)cn3nccc23)C(=O)[C@]1(C#N)C1CC1` [Example 237, (3R,4S)-3-cyclopropyl-1-(6-(2-fluoropyridin-4-yl)pyrazolo[1,5-a]pyrazin-4-yl)-4-methyl-2-oxopyrrolidine-3-carbonitrile trifluoroacetate], the pIC50 in assay [1] is 7.70 to 8.30; in assay [2], over 7.00; in assay [3] it was 7.00 to 7.30; in assay [4] it was 6.00 to 7.00; in assay [5], 5.00 to 5.30; in assay [6], 6.00 to 7.00. The pIC50 in assay [7] was 6.00 to 7.00.

Consider `Cc1ncc(-c2cn3nccc3c(N3C[C@@H](C)[C@@](C#N)(C4CC4)C3=O)n2)s1` [Example 239, (3R,4S)-3-cyclopropyl-4-methyl-1-(6-(2-methylthiazol-5-yl)pyrazolo[1,5-a]pyrazin-4-yl)-2-oxopyrrolidine-3-carbonitrile], for which the pIC50 in assay [1] was over 8.30; in assay [2], over 7.00; in assay [3] it was 7.00 to 7.30; in assay [4], 6.00 to 7.00; in assay [5], 5.30 to 6.00; in assay [6], 6.00 to 7.00. The pIC50 in assay [7] was over 7.00.

Usually pIC50 stands for −log10 of the IC50, conventionally taken in molar units.

The values above are taken from patent publication US20260297085A1, “1 H-PYRROLO[2,3-B]PYRIDIN-4-YL]-2-OXOPYRROLIDINE-3-CARBONITRILE DERIVATIVES AS TYROSINE KINASE 2 (TYK2) INHIBITORS FOR THE TREATMENT OF INFLAMMATORY DISEASES” (BIOGEN MA INC., priority 2023, published 2026).
